The target in the assay is T1, maternal embryonic leucine-zipper kinase (MELK) (Homo sapiens, UniProt Q14680).
T1 construct: recombinant MELK protein
As to the kind of experiment: in vitro kinase assay with recombinant MELK, ten-dose curve. The assay is classed as biochemical.

pIC50: −log10 of the molar value.

T1 sequence (Q14680 whole entry): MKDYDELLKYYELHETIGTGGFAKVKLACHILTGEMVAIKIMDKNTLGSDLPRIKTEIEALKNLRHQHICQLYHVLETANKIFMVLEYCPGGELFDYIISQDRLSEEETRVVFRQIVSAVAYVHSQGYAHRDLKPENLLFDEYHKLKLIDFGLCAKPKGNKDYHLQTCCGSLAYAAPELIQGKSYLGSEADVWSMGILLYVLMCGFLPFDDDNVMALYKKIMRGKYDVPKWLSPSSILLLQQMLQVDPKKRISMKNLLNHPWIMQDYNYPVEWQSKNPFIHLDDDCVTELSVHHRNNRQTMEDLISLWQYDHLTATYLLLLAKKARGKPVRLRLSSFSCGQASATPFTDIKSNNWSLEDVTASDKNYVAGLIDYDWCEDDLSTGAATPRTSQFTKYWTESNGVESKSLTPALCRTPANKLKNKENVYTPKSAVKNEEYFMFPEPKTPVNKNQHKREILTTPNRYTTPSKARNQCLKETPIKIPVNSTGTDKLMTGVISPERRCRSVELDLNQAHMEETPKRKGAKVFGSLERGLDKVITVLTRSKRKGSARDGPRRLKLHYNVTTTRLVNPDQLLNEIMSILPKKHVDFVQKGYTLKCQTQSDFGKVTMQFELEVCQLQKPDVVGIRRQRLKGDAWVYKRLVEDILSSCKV

In the case of `CCc1c[nH]c(=O)c2c1[nH]c1ccc3cc(OC)ccc3c12` [C1, Compound 1], the pIC50 is 7.38.
